Source: patent publication US10179761B2, “Compounds, pharmaceutical composition and their use in treating neurodegenerative diseases” (UNIVERSITE DE LILLE 2 DROIT ET SANTE, priority 2014, dated 2019)

Legend:
Male Swiss mice = assay: Dizocilpine-induced learning deficits: spontaneous alternation in the Y-maze; type: in vivo
Procedure: The activity of compound 3.1.10 was evaluated on the prevention of the dizocilpine-induced learning deficits measured using two behavioral tests. The present experiment tested if its anti-amnesic activity could be blocked by pretreatment with the reference sigma-1 receptor antagonist NE-100.
• Sixty (60) mice were used. Behavioral testing started one week after the arrival of the animals in the AMYLGEN animal facility. • 5 treatment groups were designed and used as follows:
• Vehicle 1 was physiological saline for dizocilpine, DMSO 2% in water for compound 3.1.10 • Animals were used at day 1 in the Y-maze test and at days 2 and 3 in the passive avoidance test, with training at day 2 and retention at day 3. • Test compounds, compound 3.1.10 and/or NE-100 were administered 10 min before dizocilpine (at 0.15 mg/kg i.p.) or vehicle. • Dizocilpine or vehicle 1 was administered 20 min before the Y-maze test session on day 1. • Dizocilpine or vehicle 1 was administered 20 min before the passive avoidance training session on day 2. Drugs were not injected before the retention session on day 3. • The whole experiment program was performed in a single serie experiment. • Treatments were randomized. 2.1.2. Animals
Male Swiss mice, 6 weeks old and weighing 30-35 g, from JANVIER (Saint Berthevin, France), were housed in groups with access to food and water ad libitum, except during experiments. They were kept in a temperature and humidity controlled animal facility on a 12 h/12 h light:dark cycle (lights on at 7:00 am). […]
Animals were tested for spontaneous alternation performance in the Y-maze, an index of spatial working memory. […] The number of maximum alternations was therefore the total number of arm entries minus two and the percentage of alternation was calculated as: (actual alternations/maximum alternations)×100. […]
All values, except passive avoidance latencies, were expressed as mean±S.E.M. Statistical analyses were performed using two-way ANOVA (F value), with genotype and peptide treatment as independent factors, followed by a Dunn's post-hoc multiple comparison test.

σ2 receptors = σ2 receptors (Homo sapiens (Human), UniProt Q5BJF2); assay: σ2 binding assay, Jurkat cell membranes, [3H]-DTG in presence of (+)-pentazocine; settings: hydrochloride salts; mean of 2 or 3 independent experiments; Ki from IC50 (Cheng-Prusoff); read-out: Sigma 2 Ki
Chain of σ2 receptors (Q5BJF2 whole entry): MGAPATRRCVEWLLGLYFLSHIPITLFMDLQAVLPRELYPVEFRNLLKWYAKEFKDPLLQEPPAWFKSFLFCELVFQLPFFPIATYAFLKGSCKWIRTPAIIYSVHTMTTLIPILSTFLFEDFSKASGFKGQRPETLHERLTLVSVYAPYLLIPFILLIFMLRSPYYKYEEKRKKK
Procedure: The σ binding assays were performed according to Ganapathy et al. (Ganapathy, M. E.; Prasad, P. D.; Huang, W.; Seth, P.; Leibach, F. H.; Ganapathy, V. Molecular and ligand-binding characterization of the sigma-receptor in the Jurkat human T lymphocyte cell line. J. Pharmacol. Exp. Ther. 1999, 289, 251-260). […] The σ2 binding assay was performed by incubating Jurkat cell membranes ([…] protein per tube) with [^3H]-DTG (25 nM) in presence of (+)-pentazocine (1 μM) to saturate σ1 receptors, and a range of concentrations of tested compounds, at room temperature for 1 hour in 5 mM Tris/HCl buffer (pH=7.4). The final assay volume was 0.5 mL. Binding was terminated by rapid filtration through Wathman GF/B filters, which were then washed with 5×1 mL ice-cold NaCl solution and allowed to dry before bound radioactivity was measured using liquid scintillation counting. Nonspecific binding was determined, in both assays, under similar conditions, but in presence of 10 μM unlabeled haloperidol. Inhibition constants (Ki) were calculated from the IC50 values according to the method of Cheng and Prusoff (Cheng, Y.; Prusoff, W. H. Relationship between the inhibition constant (Ki) and the concentration of inhibitor which causes 50 percent inhibition (IC50) of an enzymatic reaction. Biochem Pharmacol. 1973, 22 (23), 3099-108): […]

For CN(CCCNC(=O)c1ccc(Cl)cc1)Cc1ccccc1 [Compound 3.1.10, N-[3-(benzylmethylamino)propyl]-4-chlorobenzamide], the “dizocilpine-induced learning deficits, Y-maze test” value (Male Swiss mice; 0.5 mg/kg i.p., 10 min before dizocilpine 0.15 mg/kg i.p.) was “significantly attenuated”, the “beneficial effect of compound 3.1.10 with NE-100, Y-maze test” value (Male Swiss mice; 3.1.10 0.5 mg/kg + NE-100 3 mg/kg + dizocilpine 0.15 mg/kg i.p.) was “prevented by treatment with the sigma-1 antagonist NE-100” and the Ki (σ2 receptors) was 190 nM.
